Laboratory results published in patent publication US20090191173A1, “Induction Of Neurogenesis And Stem Cell Therapy In Combination With Copolymer 1” (priority 2004, published 2009).

Experiments:
[1] = tested on: neural progenitor cells (NPCs); experiment: Oligodendrocyte differentiation (NG2, RIP, GalC) of NPCs co-cultured with activated microglia; format: cell-based, mouse; details: 5 days, presence of insulin
Method: (iii) Neural progenitor cell (NPC) culture. Coronal sections (2 mm thick) of tissue containing the subventricular zone of the lateral ventricle were obtained from the brains of adult C57B16/J mice. The tissue was minced and then incubated for digestion at 37° C., 5% CO2 for 45 min in Earle's balanced salt solution containing 0.94 mg/ml papain (Worthington, Lakewood, N.J.) and 0.18 mg/ml of L-cysteine and EDTA. After centrifugation at 110×g for 15 min at room temperature, the tissue was mechanically dissociated by pipette trituration. Cells obtained from single-cell suspensions were plated (3500 cells/cm^2) in 75-cm^2 Falcon tissue-culture flasks (BD Biosciences, Franklin Lakes, N.J.), in NPC-culturing medium [Dulbecco's modified Eagles's medium (DMEM)/F12 medium (Gibco/Invitrogen, Carlsbad, Calif.) containing 2 mM L-glutamine, 0.6% glucose, 9.6 μg/ml putrescine, 6.3 ng/ml progesterone, 5.2 ng/ml sodium selenite, 0.02 mg/ml insulin, 0.1 mg/ml transferrin, 2 μg/ml heparin (all from Sigma-Aldrich, Rehovot, Israel), fibroblast growth factor-2 (human recombinant, 20 ng/ml), and epidermal growth factor (human recombinant, 20 ng/ml; both from Peprotech, Rocky Hill, N.J.)]. Spheres were passaged every 4-6 days and replated as single cells. Green fluorescent protein (GFP)-expressing neural progenitor cells (NPCs) were obtained as previously described (Pluchino et al., 2003). […]

[2] = tested on: neural progenitor cells (NPCs); experiment: Neuronal differentiation of GFP-expressing NPCs co-cultured with differently activated microglia; format: cell-based, mouse; details: absence of microglia, insulin 0.02 mg/ml
Method: (iii) Neural progenitor cell (NPC) culture. Coronal sections (2 mm thick) of tissue containing the subventricular zone of the lateral ventricle were obtained from the brains of adult C57B16/J mice. […] After centrifugation at 110×g for 15 min at room temperature, the tissue was mechanically dissociated by pipette trituration. […] Cell proliferation rates and cell survival in vitro were determined by staining with 5-bromo-2′-deoxyuridine (BrdU, 2.5 μM; Sigma-Aldrich, St. Louis). For quantification of live and dead cells, live cultures were stained with 1 μg/ml propidium iodide (Molecular Probes, Invitrogen, Carlsbad, Calif.) and 1 μg/ml Hoechst 33342 (Sigma-Aldrich, St. Louis), and cells were counted using Image-Pro (Media Cybernetics, Silver Spring, Md.), as described (Hsieh et al., 2004) (vi) Immunocytochemistry. […]

insulin: insulin added to differentiation medium (0.02 mg/ml)
NG2+ cells [1]: did not affect the incidence of NG2^+ cells
numbers of GFP+/β-III-tubulin+ cells in NPC cultures [2]: did not increase
